Reference: patent publication US8148391B2 (Cephalon, Inc., priority 2006, dated 2012)

Legend:
[1] = target: T1, baculovirus-expressed ALK (Homo sapiens, UniProt Q9UM73); experiment: ALK Kinase Assay (ELISA-type, time-resolved fluorescence); assay type: biochemical; conditions: ALK kinase inhibition, 1 μM ATP (Km level); read-out: ALK Activity
T1 construct: host or cells: baculovirus expression system
How it was run: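 Substrate coating: phospholipase C-γ, 10 μg/mL in TBS. Kinase step: 30 ng/ml ALK, 15 min, 37° C. Detection and analysis: Eu-N1 PT66 antibody, with IC50 fitted as a sigmoidal variable-slope dose-response curve.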

[2] = target: T2, c-Met (cytoplasmic domain) (Homo sapiens, UniProt P08581); experiment: c-Met Kinase Assay (same methods as for ALK, with modifications); assay type: biochemical; conditions: c-Met kinase inhibition, 1 μM ATP (Km level); read-out: cMet Activity
T2 construct: 10 ng/mL c-Met (cytoplasmic domain, Invitrogen Corporation #PV3143); purchased Invitrogen Corporation PV3143
T2 sequence (P08581 956-1390 limits assumed): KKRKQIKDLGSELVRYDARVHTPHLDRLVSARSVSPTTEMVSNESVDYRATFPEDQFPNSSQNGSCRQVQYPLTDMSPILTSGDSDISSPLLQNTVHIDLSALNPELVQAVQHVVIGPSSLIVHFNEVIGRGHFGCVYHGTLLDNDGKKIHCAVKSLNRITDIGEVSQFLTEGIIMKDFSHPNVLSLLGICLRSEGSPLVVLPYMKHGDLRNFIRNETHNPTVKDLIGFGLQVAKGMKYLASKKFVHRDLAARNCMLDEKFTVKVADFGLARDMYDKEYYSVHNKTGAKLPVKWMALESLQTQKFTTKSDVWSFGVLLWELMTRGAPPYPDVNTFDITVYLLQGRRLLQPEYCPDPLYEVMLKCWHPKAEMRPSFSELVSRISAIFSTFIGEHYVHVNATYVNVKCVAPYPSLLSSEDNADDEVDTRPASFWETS
How it was run: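 This plate-based kinase format uses immobilized phospholipase C-γ as substrate, phosphorylated by c-Met cytoplasmic domain (10 ng/mL) at 37° C for 15 minutes.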

T1 sequence (Q9UM73 19-1620): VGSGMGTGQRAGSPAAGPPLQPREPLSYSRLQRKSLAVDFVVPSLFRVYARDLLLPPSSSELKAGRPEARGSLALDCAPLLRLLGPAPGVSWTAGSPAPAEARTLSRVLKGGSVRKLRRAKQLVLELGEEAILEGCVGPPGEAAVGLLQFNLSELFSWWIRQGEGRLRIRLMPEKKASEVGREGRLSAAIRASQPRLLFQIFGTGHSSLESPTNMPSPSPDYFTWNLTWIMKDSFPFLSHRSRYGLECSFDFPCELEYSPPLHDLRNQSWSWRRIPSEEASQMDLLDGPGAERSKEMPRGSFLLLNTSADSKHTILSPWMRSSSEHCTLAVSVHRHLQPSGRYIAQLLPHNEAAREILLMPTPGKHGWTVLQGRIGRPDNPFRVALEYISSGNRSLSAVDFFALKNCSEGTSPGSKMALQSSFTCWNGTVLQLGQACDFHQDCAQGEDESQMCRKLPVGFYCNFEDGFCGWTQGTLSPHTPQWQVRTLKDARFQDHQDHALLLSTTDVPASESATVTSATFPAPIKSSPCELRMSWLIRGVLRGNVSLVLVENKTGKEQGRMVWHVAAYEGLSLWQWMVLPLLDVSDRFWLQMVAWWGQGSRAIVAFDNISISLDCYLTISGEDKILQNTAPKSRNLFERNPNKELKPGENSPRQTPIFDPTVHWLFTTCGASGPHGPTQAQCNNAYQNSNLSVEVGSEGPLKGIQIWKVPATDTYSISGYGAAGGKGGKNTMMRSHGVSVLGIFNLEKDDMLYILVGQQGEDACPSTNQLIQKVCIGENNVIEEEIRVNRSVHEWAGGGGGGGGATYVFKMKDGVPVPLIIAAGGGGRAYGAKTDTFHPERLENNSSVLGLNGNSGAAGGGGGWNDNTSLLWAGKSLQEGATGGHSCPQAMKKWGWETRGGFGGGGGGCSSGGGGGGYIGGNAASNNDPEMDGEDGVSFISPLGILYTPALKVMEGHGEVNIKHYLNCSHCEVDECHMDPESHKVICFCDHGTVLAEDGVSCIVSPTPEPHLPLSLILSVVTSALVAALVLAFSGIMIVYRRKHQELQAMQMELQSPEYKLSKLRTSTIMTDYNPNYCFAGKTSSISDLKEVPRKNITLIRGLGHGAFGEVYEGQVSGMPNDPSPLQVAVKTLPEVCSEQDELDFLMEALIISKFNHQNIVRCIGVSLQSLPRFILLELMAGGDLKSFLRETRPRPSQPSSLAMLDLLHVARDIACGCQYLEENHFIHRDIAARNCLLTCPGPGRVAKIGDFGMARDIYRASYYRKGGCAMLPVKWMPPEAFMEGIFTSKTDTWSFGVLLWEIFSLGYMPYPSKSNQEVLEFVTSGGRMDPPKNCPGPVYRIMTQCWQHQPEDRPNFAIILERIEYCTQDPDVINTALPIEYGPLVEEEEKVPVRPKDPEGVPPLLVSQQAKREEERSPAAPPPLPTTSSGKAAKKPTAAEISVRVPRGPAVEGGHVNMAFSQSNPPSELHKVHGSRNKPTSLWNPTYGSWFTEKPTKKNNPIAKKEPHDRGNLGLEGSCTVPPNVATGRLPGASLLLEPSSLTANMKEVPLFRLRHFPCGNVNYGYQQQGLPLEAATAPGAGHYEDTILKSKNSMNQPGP

With CCN1CCc2ccc(Nc3ncc(Cl)c(NCCNS(C)(=O)=O)n3)cc2CC1 [Example 298, N-{2-[5-Chloro-2-(3-ethyl-2,3,4,5-tetrahydro-1H-benzo[d]azepin-7-ylamino)-pyrimidin-4-ylamino]-ethyl}-methanesulfonamide] the IC50 [1] was 100 to 1000 nM and the IC50 [2] was 1000 to 10000 nM.

Molecule COCCN1CCc2ccc(Nc3ncc(Cl)c(NCCNS(C)(=O)=O)n3)cc2CC1 [Example 299, N-(2-{5-Chloro-2-[3-(2-methoxy-ethyl)-2,3,4,5-tetrahydro-1H-benzo[d]azepin-7-ylamino]-pyrimidin-4-ylamino}-ethyl)-methanesulfonamide] has an IC50 [1] of 100 to 1000 nM and an IC50 [2] of 1000 to 10000 nM.

For CCN1CCc2ccc(Nc3ncc(Cl)c(NCC(C)NS(C)(=O)=O)n3)cc2CC1 (stereo not shown) [Example 300, N-{2-[5-Chloro-2-(3-ethyl-2,3,4,5-tetrahydro-1H-benzo[d]azepin-7-ylamino)-pyrimidin-4-ylamino]-1-methyl-ethyl}-methanesulfonamide], the IC50 [1] was 100 to 1000 nM and the IC50 [2] was 1000 to 10000 nM.

With COCCN1CCc2ccc(Nc3ncc(Cl)c(NCC(C)NS(C)(=O)=O)n3)cc2CC1 (stereo not shown) [Example 301, N-(2-{5-Chloro-2-[3-(2-methoxy-ethyl)-2,3,4,5-tetrahydro-1H-benzo[d]azepin-7-ylamino]-pyrimidin-4-ylamino}-1-methyl-ethyl)-methanesulfonamide] the IC50 [1] was 100 to 1000 nM and the IC50 [2] was 1000 to 10000 nM.

CCN1CCc2ccc(Nc3ncc(Cl)c(NC(C)CNS(C)(=O)=O)n3)cc2CC1 (stereo not shown) [Example 302, N-{2-[5-Chloro-2-(3-ethyl-2,3,4,5-tetrahydro-1H-benzo[d]azepin-7-ylamino)-pyrimidin-4-ylamino]-propyl}-methanesulfonamide] was tested, and the IC50 [1] was < 100 nM and the IC50 [2] was 1000 to 10000 nM.

COCCN1CCc2ccc(Nc3ncc(Cl)c(NC(C)CNS(C)(=O)=O)n3)cc2CC1 (stereo not shown) [Example 303, N-(2-{5-Chloro-2-[3-(2-methoxy-ethyl)-2,3,4,5-tetrahydro-1H-benzo[d]azepin-7-ylamino]-pyrimidin-4-ylamino}-propyl)-methanesulfonamide] showed an IC50 [1] of 100 to 1000 nM and an IC50 [2] of 1000 to 10000 nM.

Molecule CCN1CCc2ccc(Nc3ncc(Cl)c(NCC(C)(C)NS(C)(=O)=O)n3)cc2CC1 [Example 304, N-{2-[5-Chloro-2-(3-ethyl-2,3,4,5-tetrahydro-1H-benzo[d]azepin-7-ylamino)-pyrimidin-4-ylamino]-1,1-dimethyl-ethyl}-methanesulfonamide] has an IC50 [1] of 100 to 1000 nM and an IC50 [2] of 1000 to 10000 nM.

With COCCN1CCc2ccc(Nc3ncc(Cl)c(NCC(C)(C)NS(C)(=O)=O)n3)cc2CC1 [Example 305, N-(2-{5-Chloro-2-[3-(2-methoxy-ethyl)-2,3,4,5-tetrahydro-1H-benzo[d]azepin-7-ylamino]-pyrimidin-4-ylamino}-1,1-dimethyl-ethyl)-methanesulfonamide] the IC50 [1] was 100 to 1000 nM and the IC50 [2] was > 10000 nM.

In the case of COCCN1CCc2ccc(Nc3ncc(Cl)c(NC(C)(C)CNS(C)(=O)=O)n3)cc2CC1 [Example 306, N-(2-{5-Chloro-2-[3-(2-methoxy-ethyl)-2,3,4,5-tetrahydro-1H-benzo[d]azepin-7-ylamino]-pyrimidin-4-ylamino}-2-methyl-propyl)-methanesulfonamide], the IC50 [1] is reported as 100 to 1000 nM and the IC50 [2] is reported as > 10000 nM.

CCN1CCc2ccc(Nc3ncc(Cl)c(NC(C)(C)CNS(C)(=O)=O)n3)cc2CC1 [Example 307, N-{2-[5-Chloro-2-(3-ethyl-2,3,4,5-tetrahydro-1H-benzo[d]azepin-7-ylamino)-pyrimidin-4-ylamino]-2-methyl-propyl}-methanesulfonamide] was tested, and the IC50 [1] was 1000 to 10000 nM and the IC50 [2] was > 10000 nM.

CNC(=O)c1cc(C)ccc1Nc1nc(Nc2ccc3c(c2)CCN(CCOC)CC3)ncc1Cl [Example 308, 2-{5-Chloro-2-[3-(2-methoxy-ethyl)-2,3,4,5-tetrahydro-1H-benzo[d]azepin-7-ylamino]-pyrimidin-4-ylamino}-5,N-dimethyl-benzamide] was tested, and the IC50 [1] was < 100 nM and the IC50 [2] was < 100 nM.

COCCN1CCc2ccc(Nc3ncc(Cl)c(Nc4ccc(N5CCOCC5)cc4OC)n3)cc2CC1 [Example 309, 5-Chloro-N*2*-[3-(2-methoxy-ethyl)-2,3,4,5-tetrahydro-1H-benzo[d]azepin-7-yl]-N*4*-(2-methoxy-4-morpholin-4-yl-phenyl)-pyrimidine-2,4-diamine] was tested, and the IC50 [1] was < 100 nM and the IC50 [2] was 100 to 1000 nM.

For COCCN1CCc2ccc(Nc3ncc(Cl)c(NC4C5C=CC(C5)C4C(N)=O)n3)cc2CC1 (stereo not drawn) [Example 310, (2-exo,3-exo)-3-{5-Chloro-2-[3-(2-methoxy-ethyl)-2,3,4,5-tetrahydro-1H-benzo[d]azepin-7-ylamino]-pyrimidin-4-ylamino}-bicyclo[2.2.1]hept-5-ene-2-carboxylic acid amide], the IC50 [1] was < 100 nM and the IC50 [2] was 100 to 1000 nM.

CNC(=O)c1cc(Cl)cc(Cl)c1Nc1nc(Nc2ccc3c(c2)CCN(CCOC)CC3)ncc1Cl [Example 314, 3,5-Dichloro-2-{5-chloro-2-[3-(2-methoxy-ethyl)-2,3,4,5-tetrahydro-1H-benzo[d]azepin-7-ylamino]-pyrimidin-4-ylamino}-N-methyl-benzamide] was tested, and the IC50 [1] was 100 to 1000 nM and the IC50 [2] was < 100 nM.

Work on CNC(=O)c1cccc(OC)c1Nc1nc(Nc2ccc3c(c2)CCN(CCOC)CC3)ncc1Cl [Example 315, 2-{5-Chloro-2-[3-(2-methoxy-ethyl)-2,3,4,5-tetrahydro-1H-benzo[d]azepin-7-ylamino]-pyrimidin-4-ylamino}-3-methoxy-N-methyl-benzamide] yielded an IC50 [1] of 100 to 1000 nM and an IC50 [2] of 100 to 1000 nM.

With COCCN1CCc2ccc(Nc3ncc(Cl)c(Nc4ccccc4-n4cccn4)n3)cc2CC1 [Example 316, 5-Chloro-N*2*-[3-(2-methoxy-ethyl)-2,3,4,5-tetrahydro-1H-benzo[d]azepin-7-yl]-N*4*-(2-pyrazol-1-yl-phenyl)-pyrimidine-2,4-diamine] the IC50 [1] was < 100 nM and the IC50 [2] was 100 to 1000 nM.

Molecule CNC(=O)c1cc(C)cc(C)c1Nc1nc(Nc2ccc3c(c2)CCN(CCOC)CC3)ncc1Cl [Example 317, 2-{5-Chloro-2-[3-(2-methoxy-ethyl)-2,3,4,5-tetrahydro-1H-benzo[d]azepin-7-ylamino]-pyrimidin-4-ylamino}-3,5,N-trimethyl-benzamide] has an IC50 [1] of 100 to 1000 nM and an IC50 [2] of 100 to 1000 nM.

In the case of COc1cc(N2CCOCC2)ccc1Nc1nc(Nc2ccc3c(c2)CCN(S(C)(=O)=O)CC3)ncc1Cl [Example 320, 5-Chloro-N*2*-(3-methanesulfonyl-2,3,4,5-tetrahydro-1H-benzo[d]azepin-7-yl]-N*4*-(2-methoxy-4-morpholin-4-yl-phenyl)-pyrimidine-2,4-diamine], the IC50 [1] is reported as < 100 nM and the IC50 [2] is reported as 1000 to 10000 nM.

For CS(=O)(=O)N1CCc2ccc(Nc3ncc(Cl)c(NC4C5C=CC(C5)C4C(N)=O)n3)cc2CC1 (stereo not drawn) [Example 321, (2-exo, 3-exo)-3-[5-Chloro-2-(3-methanesulfonyl-2,3,4,5-tetrahydro-1H-benzo[d]azepin-7-ylamino)-pyrimidin-4-ylamino]-bicyclo[2.2.1]hept-5-ene-2-carboxylic acid amide], the IC50 [1] was < 100 nM and the IC50 [2] was 100 to 1000 nM.

C#CCN1CCc2ccc(Nc3ncc(Cl)c(Nc4ccccc4C(=O)NC)n3)cc2CC1 [Example 322, 2-[5-Chloro-2-(3-prop-2-ynyl-2,3,4,5-tetrahydro-1H-benzo[d]azepin-7-ylamino)-pyrimidin-4-ylamino]-N-methyl-benzamide] was tested, and the IC50 [1] was < 100 nM and the IC50 [2] was < 100 nM.

For C#CCN1CCc2ccc(Nc3ncc(Cl)c(Nc4ccc(N5CCOCC5)cc4OC)n3)cc2CC1 [Example 324, 5-Chloro-N*4*-(2-methoxy-4-morpholin-4-yl-phenyl)-N*2*-(3-prop-2-ynyl-2,3,4,5-tetrahydro-1H-benzo[d]azepin-7-yl)-pyrimidine-2,4-diamine], the IC50 [1] was < 100 nM and the IC50 [2] was 1000 to 10000 nM.

In the case of C#CCN1CCc2ccc(Nc3ncc(Cl)c(N[C@@H]4CCCC[C@H]4NS(C)(=O)=O)n3)cc2CC1 [Example 325, N-{(1R,2R)-2-[5-Chloro-2-(3-prop-2-ynyl-2,3,4,5-tetrahydro-1H-benzo[d]azepin-7-ylamino)-pyrimidin-4-ylamino]-cyclohexyl}-methanesulfonamide], the IC50 [1] is reported as < 100 nM and the IC50 [2] is reported as 100 to 1000 nM.

In the case of C#CCN1CCc2ccc(Nc3ncc(Cl)c(Nc4ccccc4NS(C)(=O)=O)n3)cc2CC1 [Example 326, N-{2-[5-Chloro-2-(3-prop-2-ynyl-2,3,4,5-tetrahydro-1H-benzo[d]azepin-7-ylamino)-pyrimidin-4-ylamino]-phenyl}-methanesulfonamide], the IC50 [1] is reported as < 100 nM and the IC50 [2] is reported as 100 to 1000 nM.

With CNC(=O)c1ccccc1Nc1nc(Nc2ccc3c(c2)CCN(C(=O)N(C)C)CC3)ncc1Cl [Example 327, 7-[5-Chloro-4-(2-methylcarbamoyl-phenylamino)-pyrimidin-2-ylamino]-1,2,4,5-tetrahydro-benzo[d]azepine-3-carboxylic acid dimethylamide] the IC50 [1] was < 100 nM and the IC50 [2] was < 100 nM.

CNC(=O)c1ccccc1Nc1nc(Nc2ccc3c(c2)CCN(C[C@H](O)C(F)(F)F)CC3)ncc1Cl [Example 328, 2-{5-Chloro-2-[3-((S)-3,3,3-trifluoro-2-hydroxy-propyl)-2,3,4,5-tetrahydro-1H-benzo[d]azepin-7-ylamino]-pyrimidin-4-ylamino}-N-methyl-benzamide] was tested, and the IC50 [1] was < 100 nM and the IC50 [2] was < 100 nM.

In the case of CS(=O)(=O)N[C@@H]1CCCC[C@H]1Nc1nc(Nc2ccc3c(c2)CCN(C[C@H](O)C(F)(F)F)CC3)ncc1Cl [Example 329, N-((1R,2R)-2-{5-Chloro-2-[3-((S)-3,3,3-trifluoro-2-hydroxy-propyl)-2,3,4,5-tetrahydro-1H-benzo[d]azepin-7-ylamino]-pyrimidin-4-ylamino}-cyclohexyl)-methanesulfonamide], the IC50 [1] is reported as < 100 nM and the IC50 [2] is reported as 1000 to 10000 nM.
